In brackets after ≈: the same amount, converted by molar mass.
Key:
Format in all cases: physicochemical
[1] = Hygroscopicity of crystal forms by dynamic vapour sorption (DVS); details: for Hygroscopicity, water sorption @80% RH: 25° C.; for Hygroscopicity (result in words): compared with Form D
Experimental: Dynamic vapour sorption (DVS) was tested using a DVS intrinsic from SMS (Surface Measurement Systems Co. Ltd.). 20 mg compound (I) of each crystal form was placed in an aluminium sample pan and recorded the sample weight change under different humidity. The DVS method parameters were set according to Table 16, and the method was run by the machine based on such parameters. [table]

[2] = Equilibrium aqueous solubility in bio-relevant media (SGF, FaSSIF, FeSSIF); details: for Final pH (FaSSIF) / Final pH (FeSSIF) / Final pH (SGF): after equilibration at 25° C. for 24 hours
Experimental: Aqueous solubility was determined by suspending 10 mg compound in different bio-relevant media including SGF, FaSSIF and FeSSIF. The suspension was equilibrated at 25° C. for 24 hours then the final pH was measured. The suspension was then filtered through a 0.22 um PVDF filter into a 2-mL HPLC vial. The quantitation was conducted by HPLC (described in Example 10) with reference to a standard solution.

[3] = Chemical stability of crystal forms (storage, HPLC chemical purity)
Experimental: HPLC condition is disclosed here in Table 1-1. [table] 40 mg compound (I) of crystal Forms C, E and F were stored in stability chamber with temperature and humidity controlled as 50° C. and 40° C./75% RH respectively, 40 mg compound (I) of Form B was stored at 105° C. oven. After each time point, the samples were analyzed by HPLC to check their chemical purity and compared with their initial value.

| Structure (SMILES) | Hygroscopicity, water sorption @80% RH [1] [% water sorption @80% RH] | Hygroscopicity (result in words) [1] | S, mg/mL (FaSSIF) ([2]; 25° C., 24 hours) [mg/mL] | Final pH (FaSSIF) [2] | S, mg/mL (FeSSIF) ([2]; FeSSIF, 25° C., 24 hours) [mg/mL] | Final pH (FeSSIF) ([2]; FeSSIF) | S, mg/mL (SGF) ([2]; 25° C., 24 hours) [mg/mL] | Final pH (SGF) [2] | Chemical Purity, % ([3]; 105° C., 24 hr) [%] | Chemical Purity, % ([3]; Initial) [%] | Chemical Purity, % ([3]; 40° C./75% RH, 1 month) [%] | Chemical Purity, % ([3]; 50° C., 1 month) [%] | solubility thermodynamic at 24 h ([2]; FeSSIF, 25 °C, fessif, thermodynamic from solid, FeSSIF, 25° C., 24 hours, read-out: S, mg/mL (FeSSIF)) [mg/mL] |
| --- | --- | --- | --- | --- | --- | --- | --- | --- | --- | --- | --- | --- | --- |
| Cc1ccc2nc(N3CCS(=O)(=O)c4ccccc4C3)nc(NCC3(N)COC3)c2c1 [Example 1, Form A of compound (I), (3-Amino-oxetan-3-ylmethyl)-[2-(5,5-dioxo-5,6,7,9-tetrahydro-5lambda*6*-thia-8-aza-benzocyclohepten-8-yl)-6-methyl-quinazolin-4-yl]-amine] | 0.25 | much improved hygroscopicity than Form D | 0.12 | 6.60 | 1.72 | 5.31 | 2.40 | 4.80 |  |  |  |  |  |
| Cc1ccc2nc(N3CCS(=O)(=O)c4ccccc4C3)nc(NCC3(N)COC3)c2c1 [Example 2, Form B of compound (I), (3-Amino-oxetan-3-ylmethyl)-[2-(5,5-dioxo-5,6,7,9-tetrahydro-5lambda*6*-thia-8-aza-benzocyclohepten-8-yl)-6-methyl-quinazolin-4-yl]-amine] |  |  |  |  |  |  |  |  | 99.80 | 99.81 |  |  |  |
| Cc1ccc2nc(N3CCS(=O)(=O)c4ccccc4C3)nc(NCC3(N)COC3)c2c1 [Example 3, Form C of compound (I), (3-Amino-oxetan-3-ylmethyl)-[2-(5,5-dioxo-5,6,7,9-tetrahydro-5lambda*6*-thia-8-aza-benzocyclohepten-8-yl)-6-methyl-quinazolin-4-yl]-amine] | 0.04 | much improved hygroscopicity than Form D | 0.11 | 6.63 | 1.88 | 5.26 | 3.81 | 4.92 |  | 99.30 | 99.28 | 99.32 |  |
| Cc1ccc2nc(N3CCS(=O)(=O)c4ccccc4C3)nc(NCC3(N)COC3)c2c1 [Example 4, Form D of compound (I), (3-Amino-oxetan-3-ylmethyl)-[2-(5,5-dioxo-5,6,7,9-tetrahydro-5lambda*6*-thia-8-aza-benzocyclohepten-8-yl)-6-methyl-quinazolin-4-yl]-amine] | 7.52 | not suitable for further drug development |  |  |  |  |  |  |  |  |  |  |  |

Further lines, results first:

| Hygroscopicity, water sorption @80% RH [1] [% water sorption @80% RH] | Hygroscopicity (result in words) [1] | S, mg/mL (FaSSIF) ([2]; 25° C., 24 hours) [mg/mL] | Final pH (FaSSIF) [2] | S, mg/mL (FeSSIF) ([2]; FeSSIF, 25° C., 24 hours) [mg/mL] | Final pH (FeSSIF) ([2]; FeSSIF) | S, mg/mL (SGF) ([2]; 25° C., 24 hours) [mg/mL] | Final pH (SGF) [2] | Chemical Purity, % ([3]; 105° C., 24 hr) [%] | Chemical Purity, % ([3]; Initial) [%] | Chemical Purity, % ([3]; 40° C./75% RH, 1 month) [%] | Chemical Purity, % ([3]; 50° C., 1 month) [%] | solubility thermodynamic at 24 h ([2]; FeSSIF, 25 °C, fessif, thermodynamic from solid, FeSSIF, 25° C., 24 hours, read-out: S, mg/mL (FeSSIF)) [mg/mL] | Structure (SMILES) |
| --- | --- | --- | --- | --- | --- | --- | --- | --- | --- | --- | --- | --- | --- |
| 1.12 | much improved hygroscopicity than Form D | 0.90 | 5.31 |  | 5.34 | >5 | 4.69 |  | 99.49 | 99.14 | 99.45 | 2.18 (≈ 4.96 mM) | Cc1ccc2nc(N3CCS(=O)(=O)c4ccccc4C3)nc(NCC3(N)COC3)c2c1 [Example 5, Form E of compound (I), (3-Amino-oxetan-3-ylmethyl)-[2-(5,5-dioxo-5,6,7,9-tetrahydro-5lambda*6*-thia-8-aza-benzocyclohepten-8-yl)-6-methyl-quinazolin-4-yl]-amine] |
| 0.50 | much improved hygroscopicity than Form D | 1.58 | 4.99 | 1.99 | 5.18 |  | 3.15 |  | 99.62 | 99.42 | 99.43 |  | Cc1ccc2nc(N3CCS(=O)(=O)c4ccccc4C3)nc(NCC3(N)COC3)c2c1 [Example 6, Form F of compound (I), (3-Amino-oxetan-3-ylmethyl)-[2-(5,5-dioxo-5,6,7,9-tetrahydro-5lambda*6*-thia-8-aza-benzocyclohepten-8-yl)-6-methyl-quinazolin-4-yl]-amine] |

From patent US10556896B2, “Crystalline forms of (3-Amino-oxetan-3-ylmethyl)-[2-(5,5-dioxo-5,6,7,9-tetrahydro-5lambda*6*-thia-8-aza-benzocyclohepten-8-yl)-6-methyl-quinazolin-4-yl]-amine” (Hoffmann-La Roche Inc., priority 2016, dated 2020)
